Data from US20240116985A1, “STAPLED PEPTIDES AND METHODS THEREOF” (priority 2020, published 2024).
≈ marks a conversion by molar mass, not a printed value. Like-named read-outs stand apart in the source and are kept apart here.

Assays:
[1] = target: T1, full-length beta-Catenin (Uniprot ID P35222) (Homo sapiens, UniProt P35222); assay: Fluorescence polarization IC50 (beta-catenin / 5FAM-TCF4 10-53 competition); assay type: binding; details: read-out: beta-Catenin FP IC50
T1 construct: 10 nM full-length beta-Catenin (Uniprot ID P35222)
T1 sequence (P35222 1-781): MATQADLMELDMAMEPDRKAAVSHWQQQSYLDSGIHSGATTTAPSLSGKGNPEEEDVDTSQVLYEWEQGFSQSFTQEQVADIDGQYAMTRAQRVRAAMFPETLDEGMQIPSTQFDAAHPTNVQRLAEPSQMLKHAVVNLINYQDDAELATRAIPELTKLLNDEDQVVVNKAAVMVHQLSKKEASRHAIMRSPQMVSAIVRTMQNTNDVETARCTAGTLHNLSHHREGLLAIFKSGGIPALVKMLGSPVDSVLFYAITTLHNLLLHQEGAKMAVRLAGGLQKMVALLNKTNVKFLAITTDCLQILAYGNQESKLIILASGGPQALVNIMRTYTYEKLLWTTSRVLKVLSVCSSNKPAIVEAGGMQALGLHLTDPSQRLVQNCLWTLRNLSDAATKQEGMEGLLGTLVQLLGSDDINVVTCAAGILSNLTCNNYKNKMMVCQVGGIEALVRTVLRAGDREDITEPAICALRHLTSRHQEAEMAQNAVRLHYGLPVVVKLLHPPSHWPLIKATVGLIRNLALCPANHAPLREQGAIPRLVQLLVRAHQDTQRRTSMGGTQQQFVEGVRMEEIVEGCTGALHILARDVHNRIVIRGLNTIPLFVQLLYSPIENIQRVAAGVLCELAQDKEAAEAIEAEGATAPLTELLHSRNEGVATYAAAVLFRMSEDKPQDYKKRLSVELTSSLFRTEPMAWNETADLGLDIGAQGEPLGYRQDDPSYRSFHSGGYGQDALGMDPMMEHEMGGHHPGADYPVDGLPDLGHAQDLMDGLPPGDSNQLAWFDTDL

[2] = target: T2, beta-catenin/TCF4 engagement (Homo sapiens, UniProt P35222); assay: Nano-BRET target engagement assay (B-cat-Halo & TCF4-Luc in HEK293 cells); assay type: cell-based; details: absolute IC50; read-out: NanoBRET Abs IC50
T2 construct: expressed in transfected cells; host or cells: HEK293
T2 sequence (P35222 1-781): T1 sequence (P35222 1-781)

CHI Log D procedure = assay type: physicochemical; details: pH 7.4, CHI Log D
[3] = test system: TCF/LEF luciferase Reporter in DLD1 cells; assay: TCF reporter assay (DLD1 TCF/LEF luciferase reporter, Bright-Glo); assay type: cell-based
Procedure, shortened: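 DLD1 cells stably carrying a TCF/LEF luciferase reporter were plated at 5000 cells/well in RPMI + 4% FBS and treated overnight with a 1:2 compound dilution series. Bright-Glo luminescence read on day 3; viability by CellTiter-Glo. Absolute IC50 determined.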

Solubility in PBS = assay type: physicochemical
Procedure, shortened: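 The PBS solution was ultracentrifuged and the supernatant analyzed by HPLC. Its peak area was divided by that of a 50 μM peptide DMSO reference injection and multiplied by 50 uM to give solubility.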

[4] = absolute IC50, read-out: DLD1 reporter assay Abs IC50
[5] = read-out: DLD1 4% Abs IC50, DLD1 4%

Structure (SMILES) | IC50 [1] [µM] | IC50 [2] [µM] | chromatographic logD (CHI Log D procedure) | IC50 [3, 4] [µM] | Solubility (Solubility in PBS; Solubility (uM)) [µM] | IC50 [3, 5] [µM] | Solubility (Solubility in PBS) [µM]
CC(=O)N1CCC[C@]12CC=CCCCC1(CCCC=CCCCOC(=O)N3CC[C@@](C(=O)N[C@@H](Cc4ccccc4Cl)C(=O)N[C@@H](Cc4csc5ccccc45)C(=O)N[C@@H](CCC(N)=O)C(N)=O)(C3)NC(=O)[C@H](CC(N)=O)NC(=O)[C@H](Cc3ccccc3)NC(=O)[C@H](C)NC(=O)[C@H](CCCCN)NC(=O)[C@H](CN(CC(=O)O)CC(F)(F)F)NC(=O)[C@H](CC(=O)O)NC1=O)NC(=O)[C@H](CC(C)(C)C)NC(=O)[C@H](CC(=O)O)NC2=O (stereo partly drawn) [I-1011, Ac-PL3-Asp-Npg-B5-Asp-TfeGA-Lys-Ala-Phe-Asn-PyrS2-2C1F-BztA-Gln-NH2] | 0.005 | 20.8 | 2.03 | > 20 | 23 (≈ 48.6 µg/mL) | – | –
CC(=O)N1CCC[C@]12CC=CCCCC1(CCCC=CCCCOC(=O)N3CC[C@@](C(=O)N[C@@H](Cc4ccccc4Cl)C(=O)N[C@@H](Cc4csc5ccccc45)C(=O)N[C@@H](CO)C(N)=O)(C3)NC(=O)[C@H]([C@@H](C)O)NC(=O)[C@H](Cc3ccccc3)NC(=O)[C@H](C)NC(=O)[C@H](C)NC(=O)[C@H](CC(=O)O)NC(=O)[C@H](CC(=O)O)NC1=O)NC(=O)[C@H](CC(C)(C)C)NC(=O)[C@H](CC(=O)O)NC2=O (stereo partly drawn) [I-1015, Ac-PL3-Asp-Npg-B5-Asp-Asp-Ala-Ala-Phe-Thr-PyrS2-2C1F-BztA-Ser-NH2] | 0.005 | 8.9 | 2.27 | 9 | 47 (≈ 88.9 µg/mL) | 5.7 | –
CC(=O)N1CCC[C@]12CC=CCCCC1(CCCC=CCCCOC(=O)N3CC[C@@](C(=O)N[C@@H](Cc4ccccc4Cl)C(=O)N[C@@H](Cc4csc5ccccc45)C(=O)N[C@@H](CO)C(N)=O)(C3)NC(=O)[C@H]([C@@H](C)O)NC(=O)[C@H](Cc3ccccc3)NC(=O)[C@H](C)NC(=O)[C@H](C)NC(=O)[C@H](CC(N)=O)NC(=O)[C@H](CC(=O)O)NC1=O)NC(=O)[C@H](CC(C)(C)C)NC(=O)[C@H](CC(=O)O)NC2=O (stereo partly drawn) [I-1016, Ac-PL3-Asp-Npg-B5-Asp-Asn-Ala-Ala-Phe-Thr-PyrS2-2ClF-BztA-Ser-NH2] | 0.008 | 21.4 | 2.38 | 21.4 | – | – | 10 (≈ 18.9 µg/mL)
CC(=O)N1CCC[C@]12CC=CCCCC1(CCCC=CCCCOC(=O)N3CC[C@@](C(=O)N[C@@H](Cc4ccccc4Cl)C(=O)N[C@@H](Cc4csc5ccccc45)C(=O)N[C@@H](CCC(N)=O)C(N)=O)(C3)NC(=O)[C@H](CO)NC(=O)[C@H](Cc3ccccc3)NC(=O)[C@H](C)NC(=O)[C@H](C)NC(=O)[C@H](CC(=O)O)NC(=O)[C@H](CC(=O)O)NC1=O)NC(=O)[C@H](CC(C)(C)C)NC(=O)[C@H](CC(=O)O)NC2=O (stereo partly drawn) [I-1017, Ac-PL3-Asp-Npg-B5-Asp-Asp-Ala-Ala-Phe-Ser-PyrS2-2C1F-BztA-Gln-NH2] | 0.005 | 8.9 | 2.11 | > 20 | 48 (≈ 92.1 µg/mL) | – | –
CC(=O)N1CCC[C@]12CC=CCCCC1(CCCC=CCCCOC(=O)N3CC[C@@](C(=O)N[C@@H](Cc4ccccc4Cl)C(=O)N[C@@H](Cc4csc5ccccc45)C(=O)N[C@@H](CO)C(N)=O)(C3)NC(=O)[C@H](CO)NC(=O)[C@H](Cc3ccccc3)NC(=O)[C@H](C)NC(=O)[C@H](C)NC(=O)[C@H](CC(=O)O)NC(=O)[C@H](CC(=O)O)NC1=O)NC(=O)[C@H](CC(C)(C)C)NC(=O)[C@H](CC(=O)O)NC2=O (stereo partly drawn) [I-1019, Ac-PL3-Asp-Npg-B5-Asp-Asp-Ala-Ala-Phe-Ser-PyrS2-2C1F-BztA-Ser-NH2] | 0.005 | 9.6 | 2.22 | 8.3 | 48 (≈ 90.2 µg/mL) | 7.8 | –
CC(=O)N1CCC[C@]12CC=CCCCC1(CCCC=CCCCOC(=O)N3CC[C@@](C(=O)N[C@@H](Cc4ccccc4Cl)C(=O)N[C@@H](Cc4csc5ccccc45)C(=O)N[C@@H](C(N)=O)[C@H](C)O)(C3)NC(=O)[C@H](CC(N)=O)NC(=O)[C@H](Cc3ccccc3)NC(=O)[C@H](C)NC(=O)[C@H](C)NC(=O)[C@H](CC(=O)O)NC(=O)[C@H](CC(=O)O)NC1=O)NC(=O)[C@H](CC(C)(C)C)NC(=O)[C@H](CC(=O)O)NC2=O (stereo partly drawn) [I-1028, Ac-PL3-Asp-Npg-B5-Asp-Asp-Ala-Ala-Phe-Asn-PyrS2-2C1F-BztA-dThr-NH2] | 0.013 | 8.7 | 2.4 | 6.4 | – | 3.6 | 10 (≈ 19.2 µg/mL)
CC(=O)N1CCC[C@]12CC=CCCCC1(CCCC=CCCCOC(=O)N3CC[C@@](C(=O)N[C@@H](Cc4ccccc4Cl)C(=O)N[C@@H](Cc4csc5ccccc45)C(=O)N[C@@H](C(N)=O)[C@H](C)O)(C3)NC(=O)[C@H](CC(N)=O)NC(=O)[C@H](Cc3ccccc3)NC(=O)[C@H](C)NC(=O)[C@H](C)NC(=O)[C@H](CC(=O)O)NC(=O)[C@H](CC(=O)O)NC1=O)NC(=O)[C@H](CC(C)(C)C)NC(=O)[C@H](CCC(=O)O)NC2=O (stereo partly drawn) [I-1029, Ac-PL3-Glu-Npg-B5-Asp-Asp-Ala-Ala-Phe-Asn-PyrS2-2C1F-BztA-dThr-NH2] | 0.823 | > 20 | 2.36 | > 20 | 49 (≈ 94.7 µg/mL) | – | –
CC(=O)N1CCC[C@]12CC=CCCCC1(CCCC=CCCCOC(=O)N3CC[C@@](C(=O)N[C@@H](Cc4ccccc4Cl)C(=O)N[C@@H](Cc4csc5ccccc45)C(=O)N[C@@H](C(N)=O)[C@H](C)O)(C3)NC(=O)[C@H](CC(N)=O)NC(=O)[C@H](Cc3ccccc3)NC(=O)[C@H](C)NC(=O)[C@H](C)NC(=O)[C@H](CC(=O)O)NC(=O)[C@H](CCC(=O)O)NC1=O)NC(=O)[C@H](CC(C)(C)C)NC(=O)[C@H](CC(=O)O)NC2=O (stereo partly drawn) [I-1030, Ac-PL3-Asp-Npg-B5-Glu-Asp-Ala-Ala-Phe-Asn-PyrS2-2C1F-BztA-dThr-NH2] | 0.507 | > 20 | 2.76 | > 20 | 47 (≈ 90.9 µg/mL) | – | –
CC(=O)N1CCC[C@]12CC=CCCCC1(CCCC=CCCCOC(=O)N3CC[C@@](C(=O)N[C@@H](Cc4ccccc4Cl)C(=O)N[C@@H](Cc4csc5ccccc45)C(=O)N[C@@H](C(N)=O)[C@H](C)O)(C3)NC(=O)[C@H](Cc3ccccc3)NC(=O)[C@H](Cc3ccccc3)NC(=O)[C@H](C)NC(=O)[C@H](C)NC(=O)[C@H](CC(=O)O)NC(=O)[C@H](CC(=O)O)NC1=O)NC(=O)[C@H](CC(C)(C)C)NC(=O)[C@H](CC(=O)O)NC2=O (stereo partly drawn) [I-1034, Ac-PL3-Asp-Npg-B5-Asp-Asp-Ala-Ala-Phe-Phe-PyrS2-2C1F-BztA-dThr-NH2] | 0.027 | 9.5 | 2.71 | 11.9 | 12 (≈ 23.4 µg/mL) | 4 | –
CC(=O)N1CCC[C@]12CC=CCCCC1(CCCC=CCCCOC(=O)N3CC[C@@](C(=O)N[C@@H](Cc4ccccc4Cl)C(=O)N[C@@H](Cc4csc5ccccc45)C(=O)N[C@@H](C(N)=O)[C@H](C)O)(C3)NC(=O)[C@H](CC(C)C)NC(=O)[C@H](Cc3ccccc3)NC(=O)[C@H](C)NC(=O)[C@H](C)NC(=O)[C@H](CC(=O)O)NC(=O)[C@H](CC(=O)O)NC1=O)NC(=O)[C@H](CC(C)(C)C)NC(=O)[C@H](CC(=O)O)NC2=O (stereo partly drawn) [I-1035, Ac-PL3-Asp-Npg-B5-Asp-Asp-Ala-Ala-Phe-Leu-PyrS2-2C1F-BztA-dThr-NH2] | 0.021 | 10.2 | 2.63 | > 20 | 28 (≈ 53.7 µg/mL) | – | –
